Ends that are not written are not given here.
What was measured:
[1] = test system: E. coli 0111:B4 (smooth) bacteria; assay: Radial diffusion bactericidal assay, E. coli 0111:B4; format: cell-based; conditions: radial diffusion; PROBIT analysis; E. coli O111:B4 (smooth)
[2] = test system: Candida albicans; format: cell-based; conditions: for MIC (x Fold change in fungicidal activity): alanine variant relative to BPI.13
[3] = 3H-heparin binding assay (affinity and capacity); conditions: for Heparin Capacity: heparin bound at saturation; for Kd: read-out: Heparin Affinity
Outline: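 Peptide fragments were bound to PVDF-membrane wells and incubated with 3H-heparin in blocking buffer for 1 h at 4 °C. After washing, bound radioactivity was quantified by liquid scintillation counting, with BSA background subtracted; rBPI23 served as positive control.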

[4] = test system: rough mutant E. coli J5 bacteria; assay: Radial diffusion bactericidal assay, E. coli J5; format: cell-based; conditions: for pmol added to well to achieve a 30 mm^2 bactericidal zone, E. coli J5: radial diffusion, PROBIT analysis, E. coli J5 (rough); for fold reduction in bactericidal activity in the radial diffusion assay: alanine variant vs unsubstituted peptide
Outline: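 Wells received 5 or 10 μL of BPI fragment, pre-incubated 3 h at 37 °C. The underlayer agarose carried washed log-phase organisms at 4×10^6 CFU/mL.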

[5] = test system: E. coli 0113 LPS; assay: Limulus Amoebocyte Lysate (LAL) inhibition assay; format: biochemical
Experimental: BPI proteolytic fragments produced according to Example 1 were subjected to a Limulus Amoebocyte Lysate (LAL) inhibition assay to determine LPS binding properties of these fragments. Specifically, each of the fragments were mixed in Eppendorf tubes with a fixed concentration of E. coli 0113 LPS (4 ng/mL final concentration) and incubated at 37° C. for 3 hours with occasional shaking. Addition controls comprising rBPI23 at 0.05 μg/mL were also tested. Following incubation, 360 μL of Dulbecco's phosphate buffered saline (D-PBS; Grand Island Biological Co. (GIBCO), Long Island, N.Y.) were added per tube to obtain an LPS concentration of 200 pg/mL for the LAL assay. Each sample was then transferred into Immulon II strips (Dynatech, Chantilly, Va.) in volumes of 50 μl per well.
Limulus amoebocyte Lysate (Quantitative Chromogenic LAL kit, Whitaker Bioproducts, Inc., Walkersville, Md.) was added at 50 μL per well and the wells were incubated at room temperature for 25 minutes. Chromogenic substrate was then added at a volume of 100 μL per well and was well mixed. After incubation for 20 to 30 minutes at room temperature, the reaction was stopped with addition of 100 μL of 25% (v/v) acetic acid. Optical density at 405 nm was then measured in a multiplate reader (Model Vmax, […], Menlo Park, Calif.) with the results shown in FIG. 2 in terms of percent inhibition of LPS. In this Figure, the filled circle represents rBPI23; the open circle represents Asp-N fragment A3; the x represents Asp-N fragment A2, the filled square represents Asp-N fragment A4; the filled triangle represents Asp-N fragment A1A2; the open square represents Asp-N fragment A6a; the small open triangle represents CNBr fragment C3; and the small filled square represents CNBr fragment C1/C5.

[6] = test system: C. albicans; assay: Radial diffusion fungicidal assay, Candida albicans; format: cell-based; conditions: radial diffusion
[7] = alanine variant relative to BPI.2
[8] = alanine variant relative to BPI.13

Sequence | pmol added to well to achieve a 30 mm^2 bactericidal zone, E. coli O111:B4 [1] | MIC C. alb [2] [µg/mL] | MIC (x Fold change in fungicidal activity) [2] | Heparin Capacity [3] [ng] | Kd [3] [nM] | pmol added to well to achieve a 30 mm^2 bactericidal zone, E. coli J5 [4] | LAL / LPS inhibition activity (in words) [5] | C. albicans: pmol required for 30 mm^2 zone [6] [pmol] | HEPCAP (x Fold change in activity) ([3]; heparin binding capacity, relative to BPI.2) | LAL (relative difference) [5, 7] | heparin binding capacity, fold lower than the unsubstituted peptide [3] [fold] | fold reduction in bactericidal activity in the radial diffusion assay [4] | RDA (x Fold change in activity) [4, 7] | activity of position 95 substitution variants (in words) ([4]; activity not further specified) | HEPKd (x Fold change in activity) ([3]; heparin binding affinity, relative to BPI.2) | increase of Kd of heparin binding and heparin capacity ([3]; vs unsubstituted peptide) [%] | LAL (relative difference) [5, 8]
ASKVGWLIQLFHKK [BPI.31] | b (no detectable activity up to 5 μg/well) | 6.25 | = | 205.1 | 252 | 937.60 pmol | moderate decrease in LPS-binding activity | 426.21 | – | – | – | – | – | – | – | – | –
IKISGAWKAQKRFLK [BPI.20] | b (no detectable activity up to 5 μg/well) | – | – | 203.6 | 485 | 3,451.40 pmol | – | – | =1.0 x Fold | = (no difference in the LAL assay) | – | – | – | – | – | – | –
IKISGKAKAQKRFLK [BPI.21] | b (no detectable activity up to 5 μg/well) | – | – | 50.9 | 231 | 27,647.60 pmol | large decrease in activity | – | – | – | 4 | more than 10 fold | – | – | – | – | –
IKISGKWAAQKRFLK [BPI.22] | b (no detectable activity up to 5 μg/well) | – | – | 135.7 | 315 | 2,546.80 pmol | – | – | – | = (no difference in the LAL assay) | – | – | =1.0 x Fold | – | – | – | –
IKISGKWKAQARFLK [BPI.24] | 27,330.00 pmol | – | – | 427.6 | 165 | 654.60 pmol | – | – | – | = (no difference in the LAL assay) | – | – | – | unexpected increase | – | – | –
IKISGKWKAQKAFLK [BPI.25] | b (no detectable activity up to 5 μg/well) | – | – | 107.2 | 346 | 8,203.50 pmol | – | – | – | = (no difference in the LAL assay) | ~2 | – | – | – | =1.0 x Fold | – | –
IKISGKWKAQKRALK [BPI.26] | b (no detectable activity up to 5 μg/well) | – | – | 113.1 | 231 | 8,709.60 pmol | – | – | – | = (no difference in the LAL assay) | – | – | – | – | – | – | –
IKISGKWKAQKRFAK [BPI.27] | b (no detectable activity up to 5 μg/well) | – | – | 119.8 | 204 | 5,754.40 pmol | – | – | – | = (no difference in the LAL assay) | – | – | – | – | – | – | –
IKISGKWKAQKRFLA [BPI.28] | b (no detectable activity up to 5 μg/well) | – | – | 156.6 | 266 | 6,194.40 pmol | – | – | – | = (no difference in the LAL assay) | – | – | – | – | – | – | –
KAKVGWLIQLFHKK [BPI.32] | b (no detectable activity up to 5 μg/well) | 3.13 | – | 217.1 | 340 | 613.80 pmol | moderate decrease in LPS-binding activity | 293.62 | – | – | – | – | – | – | – | – | –
KSAVGWLIQLFHKK [BPI.33] | b (no detectable activity up to 5 μg/well) | 6.25 | = | 230.7 | 492 | 575.40 pmol | moderate decrease in LPS-binding activity | 603.44 | – | – | – | – | – | – | – | – | –
KSKAGWLIQLFHKK [BPI.34] | b (no detectable activity up to 5 μg/well) | 6.25 | = | 205.1 | 518 | 916.20 pmol | moderate decrease in LPS-binding activity | 319.13 | – | – | – | – | – | – | – | – | –
KSKVAWLIQLFHKK [BPI.35] | b (no detectable activity up to 5 μg/well) | 3.13 | – | 406.0 | 1080 | 263.00 pmol | – | 441.79 | – | – | – | – | – | – | – | 10 | = (no difference in the LAL assay)
KSKVGALIQLFHKK [BPI.36] | b (no detectable activity up to 5 μg/well) | 6.25 | = | 80.2 | 379 | 1,652.00 pmol | large decrease in LPS-binding activity | 196.96 | – | – | – | approximately 5 fold | – | – | – | – | –
KSKVGWAIQLFHKK [BPI.37] | b (no detectable activity up to 5 μg/well) | 6.25 | = | 136.7 | 189 | 1,284.00 pmol | – | 252.71 | – | – | – | – | – | – | – | – | = (no difference in the LAL assay)
KSKVGWLAQLFHKK [BPI.38] | b (no detectable activity up to 5 μg/well) | 6.25 | = | 194.3 | 579 | 1,698.20 pmol | – | 390.65 | – | – | – | – | – | – | – | – | = (no difference in the LAL assay)
KSKVGWLIQAFHKK [BPI.40] | b (no detectable activity up to 5 μg/well) | 3.13 | – | 160.5 | 547 | 1,760.10 pmol | large decrease in LPS-binding activity | 253.17 | – | – | – | approximately 5 fold | – | – | – | – | = (no difference in the LAL assay)
KSKVGWLIQLAHKK [BPI.41] | b (no detectable activity up to 5 μg/well) | 3.13 | – | 119.1 | 469 | 2,465.40 pmol | – | 733.70 | – | – | – | – | – | – | – | – | = (no difference in the LAL assay)
KSKVGWLIQLFHKA [BPI.44] | – | 6.25 | = | 335.6 | 579 | 480.80 pmol | – | 577.65 | – | – | – | – | – | – | – | – | = (no difference in the LAL assay)
